Source: US20070049564A1 (Wyeth, priority 2005, published 2007)
≈ marks a conversion by molar mass, not a printed value. Where two headings read alike, the source gives them in different places.

How the values were obtained:
Staph. = assay: Range of MIC for Staph. strains, including MRSA; conditions: Staphylococcus aureus
E. coli GC 2236 = assay: MIC, broth microdilution; conditions: Escherichia coli
S. aureus GC 2216 = assay: MIC, broth microdilution; conditions: Staphylococcus aureus
E. faecalis GC 2242 = assay: MIC, broth microdilution; conditions: Enterococcus faecalis
Method: (§1) Antimicrobial susceptibility testing. The in vitro activities of the antibiotics are determined by the broth microdilution method as recommended by the National Committee for Clinical Laboratory Standards (NCCLS) (1). Mueller-Hinton II broth (MHBII)(BBL Cockeysville, Md.) is the medium employed in the testing procedures. Microtiter plates containing serial dilutions of each antimicrobial agent are inoculated with each organism to yield the appropriate density (10^5 CFU/ml) in a 100 μl final volume. The plates are incubated for 18-22 hours at 35° C. in ambient air.
Representative compounds were first incubated in mouse serum for an hour prior to the in vitro testing against a panel of selected gram-positive and gram-negative bacteria strains. All compounds were also pre-incubated in water for an hour prior to testing as control. Representative compounds of Formula I were incubated in human serum prior to MIC determination.

E. coli = assay: Range of MIC for E. coli strains; conditions: Escherichia coli
E. faecalis GC 4555 = assay: MIC, broth microdilution; conditions: Enterococcus faecalis
S. pneumoniae* GC 4465 = assay: MIC, broth microdilution; conditions: Streptococcus pneumoniae
S. aureus GC 1131 = assay: MIC, broth microdilution; conditions: Staphylococcus aureus
c. albicans GC 3066 = assay: MIC, broth microdilution
S. pneumoniae+ GC 4465 = assay: MIC, broth microdilution; conditions: Streptococcus pneumoniae
Method: as §1
(§2) Representative compounds were first incubated in mouse serum for an hour prior to the in vitro testing against a panel of selected gram-positive and gram-negative bacteria strains. All compounds were also pre-incubated in water for an hour prior to testing as control.

E. faecalis GC 2265 = assay: MIC, broth microdilution; conditions: Enterococcus faecalis
Method: as §1, §2

E. coli GC 2232 = assay: MIC, broth microdilution; conditions: Escherichia coli
E. coli GC 2272 = assay: MIC, broth microdilution; conditions: Escherichia coli
E. faecium GC 2243 = assay: MIC, broth microdilution; conditions: Enterococcus faecium
E. coli GC 2231 = assay: MIC, broth microdilution; conditions: Escherichia coli
P. aeruginosa GC 2214 = assay: MIC, broth microdilution; conditions: Pseudomonas aeruginosa
S. aureus GC 4536 = assay: MIC, broth microdilution; conditions: Staphylococcus aureus
E. faecalis GC 2267 = assay: MIC, broth microdilution; conditions: Enterococcus faecalis
S. epidermidis GC 4935 = assay: MIC, broth microdilution; conditions: Staphylococcus epidermidis
[1] = read-out: MINIMAL INHIBITORY CONCENTRATION MIC, Human Serum
[2] = read-out: MINIMAL INHIBITORY CONCENTRATION MIC, Mouse Serum
[3] = read-out: MINIMAL INHIBITORY CONCENTRATION MIC, Water

With `CCCCOC(=O)N(CC(=O)Nc1cc(N(C)C)c2c(c1O)C(=O)C1=C(O)[C@]3(O)C(=O)C(C(N)=O)=C(O)[C@@H](N(C)C)[C@@H]3C[C@@H]1C2)C(C)(C)C` [Example 58, butyl 2-{[(5aR,6aS,7S,10aS)-9-(aminocarbonyl)-4,7-bis(dimethylamino)-1,8,10a,11-tetrahydroxy-10,12-dioxo-5,5a,6,6a,7,10,10a,12-octahydrotetracen-2-yl]amino}-2-oxoethyl(tert-butyl)carbamate] the MIC (Staph.; MRSA, read-out: Range of MIC, Staph (Mouse Serum)) was 2 to 4 µg/mL (≈ 2.92 to 5.83 µM), the MIC (Staph.; MRSA, read-out: Range of MIC, Staph (Water)) was 4 to 8 µg/mL (≈ 5.83 to 11.7 µM) and the MIC (Staph.; read-out: Minimum inhibitory concentration (MIC), Staph (Human Serum)) was 4 µg/mL (≈ 5.83 µM). The MIC (Staph.; read-out: Minimum inhibitory concentration (MIC), Staph (Water)) was 4 to 8 µg/mL (≈ 5.83 to 11.7 µM), the MIC (E. coli GC 2236; GC2236, read-out: MINIMAL INHIBITORY CONCENTRATION MIC, Human Serum) was greater than 64 µg/mL and the MIC (E. coli GC 2236; GC2236, read-out: MINIMAL INHIBITORY CONCENTRATION MIC, Mouse Serum) was greater than 64 µg/mL. It also gave an MIC (E. coli GC 2236; GC2236, read-out: MINIMAL INHIBITORY CONCENTRATION MIC, Water) greater than 64 µg/mL, an MIC (S. aureus GC 2216; GC2216, read-out: MINIMAL INHIBITORY CONCENTRATION MIC, Human Serum) of 4 µg/mL (≈ 5.83 µM) and an MIC (S. aureus GC 2216; GC2216, read-out: MINIMAL INHIBITORY CONCENTRATION MIC, Mouse Serum) of 2 µg/mL (≈ 2.92 µM). For the same compound, the MIC (S. aureus GC 2216; GC2216, read-out: MINIMAL INHIBITORY CONCENTRATION MIC, Water) was 4 µg/mL (≈ 5.83 µM), the MIC (E. faecalis GC 2242; GC2242, read-out: MINIMAL INHIBITORY CONCENTRATION MIC, Human Serum) was 4 µg/mL (≈ 5.83 µM) and the MIC (E. faecalis GC 2242; GC2242, read-out: MINIMAL INHIBITORY CONCENTRATION MIC, Mouse Serum) was 2 µg/mL (≈ 2.92 µM). The MIC (E. faecalis GC 2242; GC2242, read-out: MINIMAL INHIBITORY CONCENTRATION MIC, Water) was 4 µg/mL (≈ 5.83 µM), the MIC (E. coli; 20 h, read-out: Range of MIC, E. coli (Mouse Serum)) was greater than 64 µg/mL and the MIC (E. coli; read-out: Minimum inhibitory concentration (MIC), E. coli (Human Serum)) was greater than 64 µg/mL. For the same compound, the MIC (E. coli; read-out: Minimum inhibitory concentration (MIC), E. coli (water)) was greater than 64 µg/mL, the MIC (E. coli; read-out: Range of MIC, E. coli (Water)) was greater than 64 µg/mL and the MIC (E. faecalis GC 4555; GC4555, read-out: MINIMAL INHIBITORY CONCENTRATION MIC, Human Serum) was 4 µg/mL (≈ 5.83 µM). It also gave an MIC (E. faecalis GC 4555; GC4555, read-out: MINIMAL INHIBITORY CONCENTRATION MIC, Mouse Serum) of 4 µg/mL (≈ 5.83 µM), an MIC (E. faecalis GC 4555; GC4555, read-out: MINIMAL INHIBITORY CONCENTRATION MIC, Water) of 8 µg/mL (≈ 11.7 µM) and an MIC (S. pneumoniae* GC 4465; [1]) of 4 µg/mL (≈ 5.83 µM). For the same compound, the MIC (S. pneumoniae* GC 4465; [2]) was 2 µg/mL (≈ 2.92 µM), the MIC (S. pneumoniae* GC 4465; [3]) was 2 µg/mL (≈ 2.92 µM) and the MIC (S. aureus GC 1131; GC1131, read-out: MINIMAL INHIBITORY CONCENTRATION MIC, Human Serum) was 4 µg/mL (≈ 5.83 µM). For the same compound, the MIC (S. aureus GC 1131; GC1131, read-out: MINIMAL INHIBITORY CONCENTRATION MIC, Mouse Serum) was 2 µg/mL (≈ 2.92 µM), the MIC (S. aureus GC 1131; GC1131, read-out: MINIMAL INHIBITORY CONCENTRATION MIC, Water) was 4 µg/mL (≈ 5.83 µM) and the MIC (c. albicans GC 3066; Candida albicans, GC3066, read-out: MINIMAL INHIBITORY CONCENTRATION MIC) was greater than 64 µg/mL. The “MINIMAL INHIBITORY CONCENTRATION MIC” value (c. albicans GC 3066; Human Serum) was greater than 64 UG/ML, the “MINIMAL INHIBITORY CONCENTRATION MIC” value (c. albicans GC 3066; Mouse Serum) was greater than 64 UG/ML and the MIC (S. pneumoniae+ GC 4465; [1]) was 4 µg/mL (≈ 5.83 µM). It also gave an MIC (S. pneumoniae+ GC 4465; [2]) of 4 µg/mL (≈ 5.83 µM), an MIC (S. pneumoniae+ GC 4465; [3]) of 8 µg/mL (≈ 11.7 µM) and an MIC (E. faecalis GC 2265; GC2265, read-out: MINIMAL INHIBITORY CONCENTRATION MIC, Human Serum) of 4 µg/mL (≈ 5.83 µM). The MIC (E. faecalis GC 2265; GC2265, read-out: MINIMAL INHIBITORY CONCENTRATION MIC, Mouse Serum) was 4 µg/mL (≈ 5.83 µM), the MIC (E. faecalis GC 2265; GC2265, read-out: MINIMAL INHIBITORY CONCENTRATION MIC, Water) was 4 µg/mL (≈ 5.83 µM) and the MIC (E. coli GC 2232; GC2232, read-out: MINIMAL INHIBITORY CONCENTRATION MIC, Human Serum) was greater than 64 µg/mL. For the same compound, the MIC (E. coli GC 2232; GC2232, read-out: MINIMAL INHIBITORY CONCENTRATION MIC, Mouse Serum) was greater than 64 µg/mL, the MIC (E. coli GC 2232; GC2232, read-out: MINIMAL INHIBITORY CONCENTRATION MIC, Water) was greater than 64 µg/mL and the MIC (E. coli GC 2272; GC2272, read-out: MINIMAL INHIBITORY CONCENTRATION MIC, Human Serum) was greater than 64 µg/mL. The MIC (E. coli GC 2272; GC2272, read-out: MINIMAL INHIBITORY CONCENTRATION MIC, Mouse Serum) was greater than 64 µg/mL, the MIC (E. coli GC 2272; GC2272, read-out: MINIMAL INHIBITORY CONCENTRATION MIC, Water) was greater than 64 µg/mL and the MIC (E. faecium GC 2243; GC2243, read-out: MINIMAL INHIBITORY CONCENTRATION MIC, Human Serum) was 4 µg/mL (≈ 5.83 µM). It also gave an MIC (E. faecium GC 2243; GC2243, read-out: MINIMAL INHIBITORY CONCENTRATION MIC, Mouse Serum) of 2 µg/mL (≈ 2.92 µM), an MIC (E. faecium GC 2243; GC2243, read-out: MINIMAL INHIBITORY CONCENTRATION MIC, Water) of 4 µg/mL (≈ 5.83 µM) and an MIC (E. coli GC 2231; GC2231, read-out: MINIMAL INHIBITORY CONCENTRATION MIC, Human Serum) greater than 64 µg/mL. For the same compound, the MIC (E. coli GC 2231; GC2231, read-out: MINIMAL INHIBITORY CONCENTRATION MIC, Mouse Serum) was greater than 64 µg/mL, the MIC (E. coli GC 2231; GC2231, read-out: MINIMAL INHIBITORY CONCENTRATION MIC, Water) was greater than 64 µg/mL and the MIC (P. aeruginosa GC 2214; GC2214, read-out: MINIMAL INHIBITORY CONCENTRATION MIC, Human Serum) was greater than 64 µg/mL. It also gave an MIC (P. aeruginosa GC 2214; GC2214, read-out: MINIMAL INHIBITORY CONCENTRATION MIC, Mouse Serum) greater than 64 µg/mL, an MIC (P. aeruginosa GC 2214; GC2214, read-out: MINIMAL INHIBITORY CONCENTRATION MIC, Water) greater than 64 µg/mL and an MIC (S. aureus GC 4536; GC4536, read-out: MINIMAL INHIBITORY CONCENTRATION MIC, Human Serum) of 4 µg/mL (≈ 5.83 µM). The MIC (S. aureus GC 4536; GC4536, read-out: MINIMAL INHIBITORY CONCENTRATION MIC, Mouse Serum) was 2 µg/mL (≈ 2.92 µM), the MIC (S. aureus GC 4536; GC4536, read-out: MINIMAL INHIBITORY CONCENTRATION MIC, Water) was 4 µg/mL (≈ 5.83 µM) and the MIC (E. faecalis GC 2267; GC2267, read-out: MINIMAL INHIBITORY CONCENTRATION MIC, Human Serum) was 4 µg/mL (≈ 5.83 µM). For the same compound, the MIC (E. faecalis GC 2267; GC2267, read-out: MINIMAL INHIBITORY CONCENTRATION MIC, Mouse Serum) was 2 µg/mL (≈ 2.92 µM), the MIC (E. faecalis GC 2267; GC2267, read-out: MINIMAL INHIBITORY CONCENTRATION MIC, Water) was 4 µg/mL (≈ 5.83 µM) and the MIC (S. epidermidis GC 4935; GC4935, read-out: MINIMAL INHIBITORY CONCENTRATION MIC, Human Serum) was 4 µg/mL (≈ 5.83 µM). It also gave an MIC (S. epidermidis GC 4935; GC4935, read-out: MINIMAL INHIBITORY CONCENTRATION MIC, Mouse Serum) of 4 µg/mL (≈ 5.83 µM) and an MIC (S. epidermidis GC 4935; GC4935, read-out: MINIMAL INHIBITORY CONCENTRATION MIC, Water) of 8 µg/mL (≈ 11.7 µM).
